From patent US20190183812A1, “Compounds For The Treatment Of Neuromuscular Disorders” (NMD PHARMA A/S, priority 2017, published 2019)

Tests used:
CIC-1 ion channels = biological target: T1, CIC-1 ion channels (Homo sapiens, UniProt P35523); test: Resting membrane conductance (Gm), three-electrode technique, human muscle: Kd for CIC-1 inhibition; assay type: cell-based; settings: concentration that reduced Gm by 50%
T1 construct: Isolated soleus muscles from adult rats or human abdominal muscles preparations were placed in a chamber; from tissue; host or cells: human abdominal muscle from patients
T1 sequence (P35523 whole entry): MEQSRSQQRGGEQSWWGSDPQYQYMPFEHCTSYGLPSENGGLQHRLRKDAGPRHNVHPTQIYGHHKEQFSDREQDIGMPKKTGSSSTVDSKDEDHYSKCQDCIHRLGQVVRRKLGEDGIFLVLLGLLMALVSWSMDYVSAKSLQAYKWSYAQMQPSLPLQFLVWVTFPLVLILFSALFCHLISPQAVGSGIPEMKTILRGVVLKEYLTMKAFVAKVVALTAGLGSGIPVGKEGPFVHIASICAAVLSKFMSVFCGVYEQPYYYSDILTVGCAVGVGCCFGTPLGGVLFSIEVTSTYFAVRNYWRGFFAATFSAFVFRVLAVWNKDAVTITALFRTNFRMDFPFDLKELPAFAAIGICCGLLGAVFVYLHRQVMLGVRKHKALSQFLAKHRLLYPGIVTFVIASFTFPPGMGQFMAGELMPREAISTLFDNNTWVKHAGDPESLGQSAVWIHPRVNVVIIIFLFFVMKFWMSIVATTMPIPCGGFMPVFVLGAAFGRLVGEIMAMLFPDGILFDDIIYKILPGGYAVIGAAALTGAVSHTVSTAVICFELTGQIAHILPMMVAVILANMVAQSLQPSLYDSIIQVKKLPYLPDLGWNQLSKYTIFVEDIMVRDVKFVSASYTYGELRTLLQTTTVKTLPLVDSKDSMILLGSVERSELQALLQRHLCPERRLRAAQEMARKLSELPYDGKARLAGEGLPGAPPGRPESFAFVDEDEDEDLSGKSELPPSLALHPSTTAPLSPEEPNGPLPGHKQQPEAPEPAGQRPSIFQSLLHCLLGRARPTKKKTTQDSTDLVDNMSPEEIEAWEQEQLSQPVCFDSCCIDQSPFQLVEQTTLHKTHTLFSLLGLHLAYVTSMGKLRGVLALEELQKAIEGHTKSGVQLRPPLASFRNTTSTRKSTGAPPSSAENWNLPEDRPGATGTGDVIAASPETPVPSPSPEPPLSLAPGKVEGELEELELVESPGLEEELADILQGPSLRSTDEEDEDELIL

rat soleus muscles [1] = test: Mg2+ concentration required to depress nerve-stimulated force by 50% (Kd,Mg2+), combination with 3,4-AP
Protocol: FIGS. 6A-6E. […] Muscles from 4-week-old rats were stimulated to contract by activating the motor nerve with short duration pulses in field stimulation. Muscles contracted every 10 min for 2 s in response to 30 Hz stimulation. Four different experimental conditions were used. […] C) similar to A) but this muscle had been pre-incubated with 3,4-AP. […] The force integral (AUC) was determined at each extracellular Mg^2+ concentration. AUC was plotted against Mg^2+ concentration and the data was fitted to a sigmoidal function. This provided the extracellular Mg^2+ concentration that was required to reduce the nerve-stimulated force to 50% (Mg50) under the four different conditions (see Table 5).
While the use of tubocurarine mimics conditions with reduced neuromuscular transmission due to post-synaptic dysfunction (myasthenia gravis, neuromuscular blockade), the experiments with elevated extracellular Mg^2+ mimics conditions with pre-synaptic dysfunction akin to a range of neuromuscular disorders including Lambert Eaton syndrome, motor neuron disorders and polyneuropathy. Patients with Lambert Eaton syndrome are commonly treated with inhibitors of voltage gated K^+ channels such as 3,4-diaminopyridine (3,4-AP). Based on this it was determined whether recovery of nerve-stimulated force at elevated extracellular Mg^2+ with CIC-1 inhibiting compounds could be added to force recovery with 3,4-AP. […] FIG. 6A-D show recordings of nerve-stimulated force production at different Mg^2+ concentrations when tested under these four experimental conditions. […] To quantify the effect of compounds on Mg^2+ sensitivity the force at the different Mg^2+ concentrations was determined. In plots of nerve-stimulated force against Mg^2+ concentration (FIG. 6E) the Kd,Mg^2+ was determined by fitting four parameter sigmoidal function to the data. Kd, Mg^2+ for the different compounds have been collected in Table 5.

rats [2] = test: Rotarod running performance in passive immunization (MAB35) rat model of myasthenia gravis; assay type: in vivo
Protocol: FIG. 10. […] Prior to I.P. injection of MAB35 the animals had been familiarized to the rotarod over three training sessions distributed over two days. […] After this treatment performance was monitored every second hour. *Indicates significant different as evaluated using student t-test.
(§1) In both series of experiments, running performance was tested on a rotarod using a protocol where the rod was accelerated gradually over a 5 min period, and the running time and covered distance before falling off the rod were measured. […] Experiments with tubocurarine were carried out over two days, and on each day the effect of tubocurarine on running performance was tested. On the first day only tubocurarine was injected. […] On the second day, the animals were first allowed to run on the rotarod, and all animals performed normally. […] The allocation of the animals into the two groups (C8 or sham) was random and unknown to the experimenter (blinded experimental design).
In experiments with MAB35, animals were first familiarized with the rotarod over two consecutive days and then injected I.P. with MAB35. After injection, rotarod performance was then again monitored regularly over the consecutive two days. […] A considerable number of animals, however, became moribund failing to walk and they had altered ventilation (rapid) and pronounced ptosis. These animals were not included in experiments. […]

rat soleus muscles [3] = assay type: cell-based; settings: 10 and 25 μM; 1 μM μ-conotoxin GiiiB
rat soleus muscles [4] = test: Tubocurarine concentration required to depress nerve-stimulated force by 50% (Kd,tub), combination with acetylcholinesterase inhibitors
Protocol: FIGS. 5A-5E. […] Muscles from 4-week-old rats were stimulated to contract by activating the motor nerve with short duration pulses in field stimulation. Muscles contracted every 10 min for 2 s in response to 30 Hz stimulation. Four different experimental conditions were used. […] After this pre-incubation, increasing concentrations of tubocurarine were added to the bath solutions with 60 min (corresponding to six contractions) between each increase in tubocurarine. […] FIG. 5C similar to FIG. 5A but this muscle had been pre-incubated with neostigmine. […] The force integral (AUC) was determined at each tubocurarine concentration. Such AUC determinations were plotted against tubocurarine concentration for each muscle.
CIC-1 is a novel target in treatment of neuromuscular complications and it was therefore explored whether this approach for symptomatic treatment could be used in combination with existing symptomatic treatment approaches. In myasthenia gravis, which in isolated muscles was mimicked by tubocurarine, the symptoms of muscle fatigue are most commonly treated with inhibitors of acethylcholineesterase of which neostigmine and pyridostigmine are examples. Also, neostigmine is the most commonly used reversal agent of neuromuscular blocked after surgery. […] FIG. 5A-D show recordings of nerve-stimulated force production at different tubocurarine concentrations when tested under the four experimental conditions. […] To quantify the effect of compounds on tubocurarine sensitivity, the force at the different tubocurarine concentrations was determined. In plots of nerve-stimulated force against tubocurarine concentration (FIG. 5E) Kd,tub was determined by fitting four parameter sigmoidal functions to the data and the Kd,tub for the different compounds have been collected in Table 4.

rats [5] = test: Rotarod running performance of rats after I.P. tubocurarine (myasthenia like phenotype); assay type: in vivo, rat; settings: 20 mg/kg I.P., 2 hrs before tubocurarine 0.13 mg/kg
Protocol: FIGS. 9A-9B. […] FIG. 9A illustrates the design of the experiments. Prior to Day One the animals had been familiarized to the rotarod in three training sessions distributed over two days.
as §1
In the first series of in vivo experiments, myasthenia gravis was simply mimicked by I.P. injection of tubocurarine (0.13 mg/kg) in animals that had been familiarized to running on the rotarod. On the first of two consecutive days, tubocurarine was injected I.P. and the running performance of the animal was tested 21 minutes after this injection. On the second day of experimentation, the animals first performed a test run to ensure that they were no longer affected by the tubocurarine injected the day before. […]

[6] = tested on: isolated rat soleus muscles; test: Recovery of nerve-stimulated force in isolated rat soleus muscles exposed to sub-maximal tubocurarine; settings: Rattus norvegicus, 40 min; read-out: 50 μM % change after addition
Protocol: Experiments were performed using rat soleus muscles from either young (4-wk-old) or adult Wistar rats (12-14-week-old). Animal handling, killing and isolation of muscle is described elsewhere All experiments were performed using normal Krebs-Ringer bicarbonate solution (NKR). In solutions with elevated Mg^2+, MgCl2 was added to NKR-solution causing minor increases in osmolarity and ionic strength. In solutions with elevated K^+, 4 mM NaCl was replaced by 4 mM KCl in the NKR.
In all contraction experiments, isometric force production was determined and force produced during contractions was quantified by measuring the integral of the force response (AUC). Stimulation and force recordings have been described elsewhere. […] In these latter experiments, extracellular recordings of action potentials (M-waves) could be measured without temporal overlap with stimulation artefacts.
The aim was to find compounds that by inhibition of CIC-1 channels can recover nerve-stimulated force under conditions of fatigue including conditions where fatigue is caused by compromised neuromuscular transmission. Neuromuscular transmission dysfunction can develop because of both pre- and/or post-synaptic complications in connection with a disorder or as part of neuromuscular blockade during/after surgery. In the initial series of drug testing, experiments were performed with isolated muscles in the presence of sub-maximal ACh receptor antagonist tubocurarine. Since the inclusion of tubocurarine caused a partial loss of neuromuscular transmission this experiment mimics the conditions in myasthenia gravis and neuromuscular blockade. To mimic conditions with pre-synaptic complication (Lambert Eaton syndrome, motor neuron disorder, polyneuropathy) the intact nerve-muscle preparations were incubated at elevated extracellular Mg^2+, which is known to suppress release of ACh from nerve terminals of motor neurons.
To identify CIC-1 inhibitors that could be used for treatment of neuromuscular disorders we repeated the experiment shown in FIG. 2A but instead of adding 9-AC we added the compounds of interest in different concentrations within the range from 10 to 500 μM. […] For comparison with the muscle only exposed to tubocurarine (grey trace), the two traces have been overlaid. […] For comparison, muscles only exposed to tubocurarine have been included. The dotted line indicates the recovery of force with C8 when compared to the force production before its addition. This value was used in Table 1 for evaluation of the efficacy of the different compounds in recovering force.

isolated human muscles = settings: 150 μM; elevated K+ and TTX

Structure (SMILES): C[C@H](Oc1ccc(Br)cc1)C(=O)O [Compound C8, (2S)-2-(4-bromophenoxy)propanoic acid]
- Kd (CIC-1 ion channels): 5.5 µM
- effect of combination on recovery of neuromuscular transmission (rat soleus muscles [1]; C8 and 3,4-diaminopyridine together): unexpected synergistic effect
- Kd (rat soleus muscles [1]; Compound (50 μM) + 3,4-AP (10 μM)): 7800 ± 500 µM
- Kd (rat soleus muscles [1]; Compound (50 μM) alone): 4000 ± 100 µM
- rotarod performance after injection (rats [2]; 20 mg/kg): decline was reduced
- rotarod performance after injection (rats [2]; 30 mg/kg): clear recovery of performance
- EPP amplitude (rat soleus muscles [3]): significantly larger EPPs
- Kd (rat soleus muscles [4]; Compound (50 μM) + Neostigmine (10 nM)): 0.218 ± 0.018 µM
- Kd (rat soleus muscles [4]; Compound (50 μM) + Pyridostigmine (100 nM)): 0.186 ± 0.005 µM
- Kd (rat soleus muscles [4]; Compound (50 μM) alone): 0.177 ± 0.007 µM
- increase in distance run on the second day compared to the first day (rats [5]): around 150%
- activation at 50 µM [6]: 16%
- contractile force (isolated human muscles): markedly recovery
